In brackets after ≈: the same amount, converted by molar mass. Several values for one entry are separate records, joined by “and”; a condition that tells them apart may be missing. Equal entries are not always repeated. Where two headings read alike, the source gives them in different places.
Tests used:
WT isolates = test: MIC with 10% human serum added; assay type: cell-based
Method: (§1) CLSI broth microdilution (BMD) and anaerobic agar dilution (AD) methods were performed. Modifications of standard test methods included adding 10% human serum, adjusting the medium pH to 5, 6, and 8, and synergy was assessed by the checkerboard method. Mutational rates to R were determined at 4×.

[1] = Multi-dose bioavailability study, 500 mg TID; assay type: in vivo, healthy subjects (human)
Method: Multi-dose bioavailability study using FA at 500 mg TID. The pharmacokinetics of multiple oral doses of CEM-102 (sodium fusidate) 500 mg tablets in healthy subjects was evaluated. […] Blood samples for assay of plasma concentrations of CEM-102 and placebo were collected pre-dose on Day 1 and at 24, 48, 72, and 96 hours. […] Plasma concentrations of CEM-102 were assayed at MicroConstants. Inc. in San Diego, Calif., USA using a validated LC/MS/MS method with a lower limit of quantitation (LLOQ) of 20.0 ng/mL.

[2] = Dose escalation study, single and multiple doses: PK, safety, tolerability; assay type: in vivo, healthy adult subjects (human)
Method: Dose Escalation Study Using Single- and Multi-Dose FA. The pharmacokinetics (PK), safety, and tolerability of single and multiple doses of CEM-102 (sodium fusidate) were evaluated in a single-center, Phase 1, double-blind, randomized, placebo-controlled, dose-escalating study in 32 healthy adult subjects enrolled in 4 dosage groups (550, 1100, 1650, and 2200 mg). In each cohort, six subjects were to receive CEM-102 and two were to receive placebo in a single dose (Period 1) and then multiple doses BID for a total of 11 doses over 5.5 days (Period 2). The two dosing periods were separated by a seven-day washout period between the single dose in Period 1 and the first dose in Period 2.
Dosing proceeded as planned for Cohorts 1 to 3; however, Cohort 4 received only the single dose of 2200 mg (Period 1), because dose-limiting gastrointestinal intolerance was observed after multiple doses of 1650 mg BID in Cohort 3. Period 2 for Cohort 4 evaluated an initial loading dose regimen, and a second loading dose regimen was evaluated in an additional cohort (Cohort 5) per a protocol amendment.

streptococci = test: CLSI broth microdilution MIC, spectrum study; assay type: cell-based
Method: as §1

S. aureus [3] = test: CLSI broth microdilution MIC, spectrum study; assay type: cell-based; conditions: Staphylococcus aureus
Method: as §1

M. luteus = test: CLSI broth microdilution MIC, spectrum study; assay type: cell-based; conditions: Micrococcus luteus
Method: as §1

[4] = test system: E. brevis, M. catarrhalis and N. meningitidis; test: CLSI broth microdilution MIC, spectrum study; assay type: cell-based
Method: as §1

Corynebacterium spp. = test: CLSI broth microdilution MIC, spectrum study; assay type: cell-based
Method: as §1

Enterococci = test: CLSI broth microdilution MIC, spectrum study; assay type: cell-based
Method: as §1

S. aureus [5] = conditions: cited from earlier work
[6] = cited from earlier work
[7] = in the blood; cited from earlier work
[8] = test system: S. aureus MRSA (Mec A genotype); test: Agar dilution MIC against resistant S. aureus; assay type: cell-based; conditions: Staphylococcus aureus
Excerpt: The in vitro activity of CEM-102 was compared with that of telithromycin, azithromycin, erythromycin, levofloxacin, linezolid, and doxycycline against a total of 145 resistant S. aureus by agar dilution procedures (CLSI, M7-A7, M100-S18). The tested strains included S. aureus MRSA (Mec A genotype; 100 isolates), macrolide-resistant (ermA, B, C genotype or MLSb-resistant; 25), and ciprofloxacin-resistant (gyrA and parC genotype; 20).

S. aureus [9] = test: MIC population distribution, 217 S. aureus Canadian isolates; assay type: cell-based; conditions: 217 Canadian isolates
Staphylococcus = conditions: cited from earlier work
[10] = test system: Gram-negative (GN) species; test: CLSI broth microdilution / agar dilution MIC, spectrum study; assay type: cell-based; conditions: all except E. brevis, M. catarrhalis, N. meningitidis
Method: as §1

[11] = test system: Gram-positive (GP) species; test: as above; assay type: cell-based
Method: as §1

S. pyogenes [SPYO] = test: Reference broth microdilution susceptibility testing, Canadian isolates; assay type: cell-based; conditions: Streptococcus pyogenes; all 15 isolates
Excerpt: (§2) To determine a contemporary susceptibility (S) spectrum pattern. 153 GP isolates (123 S. aureus, 15 coagulase-negative staphylococci [CoNS] and 15 S. pyogenes [SPYO]) were collected from 5 Canadian medical centers between 2001 and 2006.

[12] = test system: coagulase-negative staphylococci [CoNS]; test: as above; assay type: cell-based; conditions: 15 isolates
Excerpt: as §2

S. aureus [13] = test: as above; assay type: cell-based
Excerpt: as §2

[14] = test system: Group A beta hemolytic Streptococcus; conditions: cited from earlier work
[15] = Period 1 Day 1, single dose 1650 mg

CC(=O)O[C@H]1C[C@@]2(C)[C@@H](C[C@@H](O)[C@H]3[C@@]4(C)CC[C@@H](O)[C@@H](C)[C@@H]4CC[C@@]32C)/C1=C(\CCC=C(C)C)C(=O)O [FA, fusidic acid]
increase in MIC when 10% serum was added (WT isolates): 4 fold | Cmaxss, geometric mean (CV %) ([1]; human, in vivo, 500 mg): 145680 (25.3) ng/mL | t½ss, arithmetic mean ± SD ([1]; human, in vivo, 500 mg): approximately 19 h | Trough level ([1]; prior to dosing on Day 5, 500 mg TID): 105 µg/mL | tmax, median ([2]; Period 1 Day 1, single dose 1100 mg): 3.50 h | T1/2, harmonic mean [2, 15]: 13.9 h | tmax, median [2, 15]: 3.00 h | tmax, median ([2]; Period 2 Day 6, 1100 mg BID): 4.00 h | CL/F, mean ([2]; human, in vivo, 2200 mg): 0.924 L/h | gastrointestinal AEs after single dose ([2]; in vivo): no gastrointestinal AEs were reported | serious or life-threatening adverse events ([2]; in vivo): No serious or life-threatening adverse events (AEs) occurred | tolerability of single doses ([2]; in vivo): well tolerated | MIC range (streptococci): 16 to 32 µg/mL | MIC (S. aureus [3]): 0.25 µg/mL | MIC (M. luteus): ≤ 0.5 µg/mL | MIC [4]: 0.12 to 0.5 µg/mL | MIC (Corynebacterium spp.): ≤ 0.12 µg/mL | MIC range (Enterococci): 2 to 8 µg/mL | MICs of resistant S. aureus strains (S. aureus [5]; FA-resistant strains): > 256 µg/mL | actual MIC (S. aureus [5]; S. aureus, without protein): < 0.25 µg/mL | MIC90 (S. aureus [5]; S. aureus): 0.12 µg/mL (≈ 0.232 µM) | Cmax in plasma at steady state ([6]; 500 mg TID, steady state after the 4th day): 140 µg/mL | Cmax in plasma ([6]; after the first day of treatment, 500 mg TID): around 30 ug/ml | oral bioavailability ([6]; oral): around 98% | Protein binding [7]: 95-97% and 96-98% | MIC90 [8]: 0.25 µg/mL (≈ 0.484 µM) | resistance rate (for CEM-102: isolates with MICs of ≥2.0 μg/mL) (S. aureus [9]): 6.5% | MIC in plasma protein (Staphylococcus): ≥ 2.5 micrograms per ml | increase of MIC in plasma protein (Staphylococcus): 8-10 fold | MIC [10]: ≥ 2 µg/mL | MIC values range [11]: 0.06 to 32 µg/mL | MIC (S. pyogenes [SPYO]): 4 to 8 µg/mL (≈ 7.74 to 15.5 µM) | MIC50 [12]: 0.12 µg/mL (≈ 0.232 µM) | MIC90 [12]: 16 µg/mL (≈ 31 µM) | % at ≤0.5 (S. aureus [13]; 2001-2002): 95.0% | No. inhibited at MIC 0.06 μg/mL (S. aureus [13]; 2001-2002): 8 | No. inhibited at MIC […] (S. aureus [13]; 2001-2002): 29 and 1 | No. inhibited at MIC ≥2 μg/mL (S. aureus [13]; 2001-2002): 2 | R rate over time (S. aureus [13]; 2001-2006, breakpoint ≤0.5 μg/ml (S) and ≤2 μg/ml (R)): 5.0-12.2% | % at ≤0.5 (S. aureus [13]; 2003-2004): 92.9% | MIC50 (S. aureus [13]; 2003-2004): 0.12 µg/mL (≈ 0.232 µM) | No. inhibited at MIC 0.06 μg/mL (S. aureus [13]; 2003-2004): 6 | No. inhibited at MIC […] (S. aureus [13]; 2003-2004): 33 | No. inhibited at MIC ≥2 μg/mL (S. aureus [13]; 2003-2004): 3 | % at ≤0.5 (S. aureus [13]; 2005-2006): 87.8% | No. inhibited at MIC 0.06 μg/mL (S. aureus [13]; 2005-2006): 2 | No. inhibited at MIC […] (S. aureus [13]; 2005-2006): 32 and 2 | No. inhibited at MIC ≥2 μg/mL (S. aureus [13]; 2005-2006): 5 | MIC90 (S. aureus [13]; Staphylococcus aureus, 2003-2004): 0.12 µg/mL (≈ 0.232 µM) | MIC90 (S. aureus [13]; Staphylococcus aureus, 2005-2006): ≥ 2 µg/mL | MIC90 (S. aureus [13]; Staphylococcus aureus, overall S. aureus population): 0.25 µg/mL (≈ 0.484 µM) | MIC90 (S. aureus [13]; Staphylococcus aureus, 2001-2002): 0.12 µg/mL (≈ 0.232 µM) | MIC50 (S. aureus [13]; Staphylococcus aureus, 2001-2002, read-out: MIC50): 0.12 µg/mL (≈ 0.232 µM) | R rate (S. aureus [13]; overall S. aureus population): 8.1% | MIC90 [14]: 4 to 8 µg/mL | MICs ([14]; classified as moderately susceptible): 4-16 micrograms per ml

Source: patent publication US20190388437A1, “COMPOSITIONS AND METHODS FOR TREATING BONE AND JOINT INFECTIONS” (priority 2014, published 2019)
